These results are taken from PMC6154738, “Anti-Onchocerca and Anti-Caenorhabditis Activity of a Hydro-Alcoholic Extract from the Fruits of Acacia nilotica and Some Proanthocyanidin Derivatives” (Molecules : A Journal of Synthetic Chemistry and Natural …, 2017).

In brackets after ≈: the same amount, converted by molar mass. Where two headings read alike, the source gives them in different places.

Data set [1] concerns O. ochengi females. Description: microbe, parasite or virus in culture. Also on record: species or system Onchocerca ochengi. The following applies: for LC50: Onchocerca ochengi, 48 h; for Selectivity Index (SI) O. ochengi Females: SI = CC50 on Caco-2/LC50 on worm. Here is the method:
The adult female worms were isolated by digestion of the nodules with collagenase at 37 °C. The female worms were cultured in a CO2-incubator [67]. For anthelmintic activity, they were incubated with the crude extracts, fractions and pure compounds.
(§1) Adult worms (six individuals per well for males and one per well for the female) and Mf were washed twice and were subsequently transferred to RPMI-1640 medium supplemented with L-glutamine, 100 U/mL penicillin and 100 µg/mL streptomycin and incubated at 37 °C in 24-well plates (96-well plate for Mf) with different concentrations of the drugs tested. Worm mortality was checked by observation under the binocular microscope after 48 h. After shaking, immotile and fully-elongated worms were considered to be dead. All tests were done in three independent triplicate determinations.

Data set [2] deals with O. ochengi microfilariae. The experiment in a line: microbe, parasite or virus in culture. On the set-up: species or system Onchocerca ochengi. The settings on record: for LC50: Onchocerca ochengi, 48 h; for Selectivity Index (SI) O. ochengi Microfilariae: SI = CC50 on Caco-2/LC50 on worm. The method, then:
Microfilariae were isolated as describe by Cho-Ngwa et al. and Ndjonka et al.. About 10 skin snips were obtained from different locations of the skin. The skin snips were then incubated at 37 °C in PBS to let Mf emerge. The highly motile Mf were concentrated by centrifugation at 400× g for 10 min and quantified. The Mf were incubated at 37 °C with the crude extract, fractions and pure compounds.
as §1

Data set [3] in a line: In vitro cytotoxicity (MTT) and CC50 determination. It counts as cell-based. The settings on record: human; for CC50 at 48 h: Caco-2, CC50 after 48 h calculated in µM, read-out: Cytotoxicity CC50, Caco-2 (in brackets) (converted); for CC50 at 72 h: Caco-2, MTT, read-out: Cytotoxicity, means CC50 ± SD, Caco-2. The method, then:
Cell culture: […] cells at Passage 70 were kindly provided by Prof. Hensel, Institute of Pharmaceutical Biology and Phytochemistry, University of Münster, and were cultured as previously describe by Zumdick et al..
Cytotoxicity test: The cytotoxicity assays were performed according to the method of Rahman et al.. Briefly, 1.5 × 10^4 viable cells/well were seeded in a 96-well plate and incubated for 24 to 48 h. […] DMEM samples were used as the negative control. […] The medium was removed, and formazan, generated by the activity of dehydrogenases, was solubilized with 70 µL of acidified isopropanol (0.4 M HCl). The amount of MTT-formazan that is directly proportional to the number of living cells was determined by measuring the optical density (OD) at 540 nm using a spectrophotometer. All controls used were treated equally. As control and to determine 100% growth, Caco-2 cells were grown in the absence of drugs so as to calculate cell viability. All determinations were performed in triplicate. […] The selectivity index (SI) values were calculated as the ratio: SI = CC50 of drug on Caco2/LC50 of drug on worm.

Data set [4] relates to Wistar rats. Description: Acute oral toxicity on rats.
Source text: Adult Wistar rats (Rattus norvegicus), males aged 7 to 8 weeks and weighing 150 to 200 g, used for the experiments were obtained from LANAVET (Laboratoire National Vétérinaire, Garoua, Cameroon). The rats were acclimatized for one week in the Veterinary Research Laboratory of the Institute of Agricultural Research for Development, Wakwa, Cameroon, before initiating experiments. Animals were housed in groups of three (one group for the negative control, six groups for each drug at the first phase, six others at the second phase) under ambient temperatures (23 °C ± 1 °C) with relative humidity 55 ± 5% and 12 h light/dark cycle in polycarbonate cages. […] They were monitored by a veterinarian for health status.
Acute oral toxicity (LD50, that is the dose that kills 50% of animals of the tested group) was measured using the method of the OECD guidelines for the testing of chemicals [56] following the European Community guidelines for the protection of animals used in experiments [69] and respecting the 3Rs (Replacement, Refinement, Reduction) [70]. Drugs in distilled water were orally administered separately at doses of 10 mg/kg, 100 mg/kg and 1000 mg/kg body weight. The negative controls were distilled water-administered rats. They were given to three groups of three rats each and observed for 24 h. […] The test was done at a single oral dose for each rat in a 5 mL/kg volume. The experimental animals were starved for 24 h before and 4 h after treatment. […] The appearance of toxic symptoms, such as behavioral changes, locomotion, convulsions and mortality, was observed and recorded. Animals were observed constantly for the first 30 min after administration and, thereafter, every 4 h up to 24 h and, subsequently, once a day for up to 14 days.
Data set [5] concerns C. elegans CB3474 (ben-1(e1880) III). The experiment in a line: microbe, parasite or virus in culture. The following applies: Caenorhabditis elegans, 48 h. Here is the method: (§2) All strains were obtained from the Caenorhabditis Genetic Centre (CGC, Minneapolis, MN, USA). Strains were maintained at 20 °C on nematode growth medium (NGM). All worms were age-synchronized and obtained from eggs that were isolated by bleaching.
(§3) Young adult (L4 stage) worms were used to assess drug lethality. Monitored endpoint was 48 h mortality. Tests were performed in 24-well plates. Five hundred (500) microliters of test solution, which is M9-buffer (3 g KH2PO4, 6 g Na2HPO4, 5 g NaCl, 0.25 g MgSO4.7H2O, in 1 L of water after been autoclaved supplemented with 2% glucose, 0.5% cholesterol), were distributed in 24-well plates. The volume of M9-buffer equivalent to the drug to be added for each drug final concentration (in each test, three to six concentrations were used) was removed. Untreated worms in M9-buffer were used as negative control. […] Crude extract fraction (stock solution at 100 mg/mL) and pure compound (stock solution at 100 mg/mL) previously dissolved in M9-buffer were then added in well plates at increasing concentration (varying from 0 to 1000 or 1500 µg/mL for extract and fractions; 0 to 100 or 150 µg/mL). The young adult (10 to 15 ± 2) from the axenic culture (without food source) were then added at the test solution. […] Treatments were replicated three times.

For data set [6], the system named is C. elegans VC722 (glc-2(ok1047) I). Description: microbe, parasite or virus in culture. The following applies: Caenorhabditis elegans, 48 h. Here is the method:
as §2, §3

Data set [7] deals with C. elegans CB211 (lev-1(e211) IV). The experiment in a line: microbe, parasite or virus in culture. The following applies: Caenorhabditis elegans, 48 h. Here is the method:
as §2, §3

For data set [8], the system named is C. elegans DA1316 (avr-14(ad1302) I avr-15(ad1051) glc-1(pk54)). Description: microbe, parasite or virus in culture. The following applies: Caenorhabditis elegans, 48 h. Here is the method: as §2, §3
In data set [9] the test system is C. elegans N2 Bristol WT. Description: microbe, parasite or virus in culture. The following applies: for LC50: Caenorhabditis elegans, 48 h; for Selectivity Index (SI) C. elegans Wild Type: SI = CC50 on Caco-2/LC50 on worm. Here is the method: as §2, §3
Data set [10] has as its system C. elegans ZZ16 (lev-9(x16) X). Description: microbe, parasite or virus in culture. The following applies: Caenorhabditis elegans, 48 h. The method, then:
as §2, §3

Data set [11] deals with O. ochengi males. Description: microbe, parasite or virus in culture. Also on record: species or system Onchocerca ochengi. The following applies: for LC50: Onchocerca ochengi, 48 h; for Selectivity Index (SI) O. ochengi Males: SI = CC50 on Caco-2/LC50 on worm.
Source text: The adult male worms were isolated as previously describe by Ndjonka et al. from fresh pieces of cattle skin (cow-udder) with palpable nodules obtained from the communal slaughter house of Ngaoundere in the Adamawa region of Cameroon. Nodules removed from the skin were brought to the laboratory, washed, drained and sterilized with 70% ethanol for dissection. After dissection of nodules, O. ochengi were extracted, isolated and washed three times in sterile phosphate-buffered saline (PBS). To analyze the anthelmintic activity of extract, fractions and pure compounds, the worms were incubated at 37 °C.
as §1

Data set [12] has as its system O. ochengi. The following applies: cited from earlier work.
Where [13] appears, read: read-out: LC50/48 h (in brackets).
The mark [14] stands for this setting: Phase 1, 10 mg/kg single oral dose.
Where [15] appears, read: Phase 1, 100 mg/kg single oral dose.
Setting [16] is: Phase 1, 1000 mg/kg single oral dose.
The mark [17] stands for this setting: Phase 2, 1500 mg/kg single oral dose.
The mark [18] stands for this setting: Phase 2, 3000 mg/kg single oral dose.
The mark [19] stands for this setting: Phase 2, 5000 mg/kg single oral dose.

As usually defined, the CC50 is the concentration that lowers cell viability or growth by half. For the molecule `Oc1cc(O)c2c(c1)O[C@H](c1cc(O)c(O)c(O)c1)[C@@H](O)C2` [GC, (+)-gallocatechin], the LC50 in [1] (read-out: LC50/48 h) is 5.5 ± 0.3 µg/mL; in [1] (setting [13]) it was 18 µM; in data set [2] (read-out: LC50/48 h), 3.2 ± 0.3 µg/mL; in data set [2] (setting [13]), 10.4 µM; in data set [5] (read-out: LC50/48 h), 83.1 ± 0.1 µg/mL; in data set [5] (setting [13]), 271 µM. Moreover, the LC50 is 96.3 ± 0.07 µg/mL in data set [6] (read-out: LC50/48 h); 314 µM in data set [6] (setting [13]); 21.5 ± 0.3 µg/mL in data set [7] (read-out: LC50/48 h); 70.2 µM in data set [7] (setting [13]); 82.5 ± 0.1 µg/mL in data set [8] (read-out: LC50/48 h); 269 µM in data set [8] (setting [13]). The LC50 was 74.3 ± 0.3 µg/mL in data set [9] (read-out: LC50/48 h); 242 µM in [9] (setting [13]); 65.6 ± 0.2 µg/mL in data set [10] (read-out: LC50/48 h); 214 µM in data set [10] (setting [13]); 4.2 ± 0.1 µg/mL in data set [11] (read-out: LC50/48 h); 13.6 µM in [11] (setting [13]). Further, in data set [1], the “Selectivity Index (SI) O. ochengi Females” value stood at 12.1. Moreover, the “Selectivity Index (SI) O. ochengi Microfilariae” value in data set [2] came to 20.8. In addition, the cytotoxic concentration (CC50) at 48 h in [3] was 218 µM. For the same molecule, in data set [3], the CC50 at 72 h stood at 66.7 ± 0.7 µg/mL (≈ 218 µM). Further, the “Mortality of rats: rat number end/start” value in [4] (setting [14]), in [4] (setting [15]), in data set [4] (setting [16]), in [4] (setting [17]), in [4] (setting [18]) and in [4] (setting [19]) was 0/3 in each case. Further, the “Selectivity Index (SI) C. elegans Wild Type” value in [9] is 0.9. Also, in data set [11], the “Selectivity Index (SI) O. ochengi Males” value stood at 15.9.

In the case of `CCCCC/C=C\C/C=C\CCCCCCCC(=O)O` [linoleic acid], the LC50 in data set [12] was 55.7 µM.

`Oc1cc(O)c2c(c1)O[C@H](c1cc(O)c(O)c(O)c1)[C@H](O)C2` [EGC, (−)-epigallocatechin]: the LC50 in [1] (read-out: LC50/48 h) was 3.3 ± 0.6 µg/mL; in data set [1] (setting [13]), 10.6 µM; in data set [2] (read-out: LC50/48 h) it was 3.3 ± 0.5 µg/mL; in data set [2] (setting [13]), 10.6 µM; in data set [5] (read-out: LC50/48 h) it was 53.8 ± 0.9 µg/mL; in data set [5] (setting [13]), 176 µM. Also, the LC50 in data set [6] (read-out: LC50/48 h) is 93.8 ± 0.3 µg/mL; in [6] (setting [13]), 306 µM; in data set [7] (read-out: LC50/48 h), 83.3 ± 0.6 µg/mL; in data set [7] (setting [13]), 272 µM; in data set [8] (read-out: LC50/48 h) it was 87.5 ± 0.5 µg/mL; in data set [8] (setting [13]) it was 286 µM. Also, the LC50 in data set [9] (read-out: LC50/48 h) was 62.7 ± 0.2 µg/mL; in [9] (setting [13]) it was 205 µM; in data set [10] (read-out: LC50/48 h), 92 ± 0.3 µg/mL; in data set [10] (setting [13]) it was 301 µM; in [11] (read-out: LC50/48 h), 2.1 ± 0.4 µg/mL; in data set [11] (setting [13]) it was 6.8 µM. The “Selectivity Index (SI) O. ochengi Females” value in data set [1] came to 14.3. The “Selectivity Index (SI) O. ochengi Microfilariae” value in data set [2] is 14.3. The cytotoxic concentration (CC50) at 48 h in data set [3] is 154 µM. Also, in [3], the 50% cytotoxic concentration (CC50) at 72 h is 47.1 ± 0.5 µg/mL (≈ 154 µM). The “Mortality of rats: rat number end/start” value in data set [4] (setting [14]), in [4] (setting [15]), in [4] (setting [16]), in data set [4] (setting [17]), in data set [4] (setting [18]) and in data set [4] (setting [19]) was 0/3 throughout. Besides, the “Selectivity Index (SI) C. elegans Wild Type” value in data set [9] stood at 0.8. Moreover, in [11], the “Selectivity Index (SI) O. ochengi Males” value amounted to 22.4.
